In patent US9359383B2, “β-ketoimine ligand, method of preparing the same, metal complex comprising the same and method of forming thin film using the same” (SAMSUNG ELECTRONICS CO., LTD., priority 2011, dated 2016):

Key:
[1] = Purification by distillation under reduced pressure (thermal stability); assay type: physicochemical; conditions: distillation at 30-50 Pa and 200-220° C.
Procedure: Strontium complex compounds of Comparative Examples 1 to 8 were prepared using the β-ketoimine ligands, obtained in Synthesis Examples 4 to 11, in the same manner as Example 1. Purification of the strontium complex compounds of Comparative Examples 3, 4, 5, 6 and 8, which could be distilled, was carried out at a pressure of 30-50 Pa and a temperature of 200˜220° C. […] The strontium complex compounds of Comparative Examples 1 to 8 were analyzed in the same manner as Examples 1 to 3, thereby determining the chemical structures thereof.

[2] = Evaluation of solubility in organic solvent (Test Example 2); assay type: physicochemical; conditions: 0.1-0.7 mol added to 1000 ml solvent, sealed, stood 24 hours, visual observation
Procedure: For the strontium complex compounds of Examples 1 to 3 and Comparative Examples 2 to 8, the solubilities of the complex compounds in ethyl cyclohexane, diethyl glycol dimethyl ether and toluene were evaluated. The evaluation was performed by adding 0.1-0.7 mol of each of the strontium complex compounds to 1000 ml of each of the organic solvents, sealing the mixtures, allowing the mixtures to stand for 24 hours, and visually observing whether a solid occurred in the mixtures. […] In Table 3, the case in which the complex compound was dissolved at a concentration of less than 0.1 mol was indicated as “x”.

[3] = Thermal stability by TGA (Test Example 3); assay type: physicochemical; conditions: dry argon 100 ml/min, heating rate 10° C./min, sample 7-12 mg
Procedure: (§1) The strontium complex compounds of Examples 1 to 3 and Comparative Examples 5 to 8 were measured for thermal stability by TGA and DSC. The TGA measurement was carried out under the following conditions: dry argon flow rate: 100 ml/min; heating rate: 10° C./min; and a sample amount of 7-12 mg. The DSC measurement was carried out by injecting a sample into a closed metal container in a glove box in a dry argon atmosphere and heating the sample container at a rate of 10° C./min, in which the amount of the sample was 1-4 mg. In the TGA measurement, sampling and measurement were carried out in the glove box in the dry argon atmosphere.

[4] = Thermal stability by DSC (Test Example 3); assay type: physicochemical; conditions: closed metal container, dry argon, heating rate 10° C./min, sample 1-4 mg
Procedure: as §1

| Structure (SMILES) | thermal stability (could not be purified by distillation) [1] | concentration of the strontium complex compound in the transparent liquid in which no solid was present, Diethylene glycol dimethyl ether [2] | concentration of the strontium complex compound in the transparent liquid in which no solid was present, Toluene [2] [mol] | Remaining amount (wt % at 400 ° C.) [3] [wt %] | Decomposition peak top temperature (° C.) [4] [°C] | concentration of the strontium complex compound in the transparent liquid in which no solid was present, Ethyl cyclohexane [2] | melting point [°C] |
| --- | --- | --- | --- | --- | --- | --- | --- |
| COCC[N+]1=C(C)C=C(C(C)(C)C)[O][Sr-2]12[O]C(C(C)(C)C)=CC(C)=[N+]2CCOC [Comparative Example 1] | low thermal stability | – | – | – | – | – | – |
| CC1=[N+](CCN(C)C)[Sr-2]2([O]C(C(C)(C)C)=C1)[O]C(C(C)(C)C)=CC(C)=[N+]2CCN(C)C [Comparative Example 2] | low thermal stability | 0.3 mol | 0.3 | – | – | X (the case in which the complex compound was dissolved at a concentration of less than 0.1 mol was indicated as “x”) | – |
| CC(C)C1=[N+](C(C)CN(C)C)[Sr-2]2([O]C(C(C)(C)C)=C1)[O]C(C(C)(C)C)=CC(C(C)C)=[N+]2C(C)CN(C)C (stereo not drawn) [Comparative Example 4] | – | 0.4 mol | 0.7 | – | – | 0.3 mol | – |
| COCCC(C)(C)C1=CC(C(C)C)=[N+](C(C)CN(C)C)[Sr-2]2([O]1)[O]C(C(C)(C)CCOC)=CC(C(C)C)=[N+]2C(C)CN(C)C (stereo not drawn) [Comparative Example 8] | – | X (the case in which the complex compound was dissolved at a concentration of less than 0.1 mol was indicated as “x”) | 0.1 | 3.97 | 368.2 | X (the case in which the complex compound was dissolved at a concentration of less than 0.1 mol was indicated as “x”) | – |
| COCC(C)(C)C1=[O+][Sr-4]234([O+]=C(C(C)(C)COC)C=C(C(C)C)[N]2C(C)C[N+]3(C)C)[N](C(C(C)C)=C1)C(C)C[N+]4(C)C (stereo not drawn) [Example 1] | – | 0.7 mol | 0.7 | 0.61 | 382.4 | 0.7 mol | 140 to 141 |
| CCOCC(C)(C)C(=O)C=C(C(C)C)[N]([Sr][N](C(=CC(=O)C(C)(C)COCC)C(C)C)C(C)CN(C)C)C(C)CN(C)C (stereo not drawn) [Example 2] | – | 0.7 mol | 0.7 | 1.40 | 360.7 | 0.6 mol | – |

Continued, in another order:

| thermal stability (could not be purified by distillation) [1] | concentration of the strontium complex compound in the transparent liquid in which no solid was present, Diethylene glycol dimethyl ether [2] | concentration of the strontium complex compound in the transparent liquid in which no solid was present, Toluene [2] [mol] | Remaining amount (wt % at 400 ° C.) [3] [wt %] | Decomposition peak top temperature (° C.) [4] [°C] | Structure (SMILES) | concentration of the strontium complex compound in the transparent liquid in which no solid was present, Ethyl cyclohexane [2] | melting point [°C] |
| --- | --- | --- | --- | --- | --- | --- | --- |
| – | 0.4 mol | 0.1 | 26.2 | 336.8 | COCCCC1=[N+](CCCN(C)C)[Sr-2]2([O]C(C(C)(C)C)=C1)[O]C(C(C)(C)C)=CC(CCCOC)=[N+]2CCCN(C)C [Comparative Example 5] | X (the case in which the complex compound was dissolved at a concentration of less than 0.1 mol was indicated as “x”) | – |
| – | 0.4 mol | 0.4 | 3.7 | 363.0 | COCC(C)[N+]1=C(C(C)C)C=C(C(C)(C)COC)[O][Sr-2]12[O]C(C(C)(C)COC)=CC(C(C)C)=[N+]2C(C)COC (stereo not drawn) [Comparative Example 6] | 0.5 mol | – |
| low thermal stability | 0.2 mol | 0.3 | 10.2 | 337.5 | COCC(C)(C)C1=CC(C(C)C)=[N+](CCN(C)C)[Sr-2]2([O]1)[O]C(C(C)(C)COC)=CC(C(C)C)=[N+]2CCN(C)C [Comparative Example 7] | 0.3 mol | – |
| – | 0.7 mol | 0.7 | 0.87 | 393.2 | CCC(C)C(=CC(=O)C(C)(C)COC)[N]([Sr][N](C(=CC(=O)C(C)(C)COC)C(C)CC)C(C)CN(C)C)C(C)CN(C)C (stereo not drawn) [Example 3] | 0.7 mol | – |
